This passage reports % of inhibition, % binding and % of control results from ChEMBL document CHEMBL5465560, “Selectivity Literature for EUbOPEN Chemogenomic Library” (2024).

Structures are written as SMILES.

For assay [1], the target named is T1, Tyrosine-protein kinase Mer (Homo sapiens) (UniProt Q12866).
T1 sequence (whole entry): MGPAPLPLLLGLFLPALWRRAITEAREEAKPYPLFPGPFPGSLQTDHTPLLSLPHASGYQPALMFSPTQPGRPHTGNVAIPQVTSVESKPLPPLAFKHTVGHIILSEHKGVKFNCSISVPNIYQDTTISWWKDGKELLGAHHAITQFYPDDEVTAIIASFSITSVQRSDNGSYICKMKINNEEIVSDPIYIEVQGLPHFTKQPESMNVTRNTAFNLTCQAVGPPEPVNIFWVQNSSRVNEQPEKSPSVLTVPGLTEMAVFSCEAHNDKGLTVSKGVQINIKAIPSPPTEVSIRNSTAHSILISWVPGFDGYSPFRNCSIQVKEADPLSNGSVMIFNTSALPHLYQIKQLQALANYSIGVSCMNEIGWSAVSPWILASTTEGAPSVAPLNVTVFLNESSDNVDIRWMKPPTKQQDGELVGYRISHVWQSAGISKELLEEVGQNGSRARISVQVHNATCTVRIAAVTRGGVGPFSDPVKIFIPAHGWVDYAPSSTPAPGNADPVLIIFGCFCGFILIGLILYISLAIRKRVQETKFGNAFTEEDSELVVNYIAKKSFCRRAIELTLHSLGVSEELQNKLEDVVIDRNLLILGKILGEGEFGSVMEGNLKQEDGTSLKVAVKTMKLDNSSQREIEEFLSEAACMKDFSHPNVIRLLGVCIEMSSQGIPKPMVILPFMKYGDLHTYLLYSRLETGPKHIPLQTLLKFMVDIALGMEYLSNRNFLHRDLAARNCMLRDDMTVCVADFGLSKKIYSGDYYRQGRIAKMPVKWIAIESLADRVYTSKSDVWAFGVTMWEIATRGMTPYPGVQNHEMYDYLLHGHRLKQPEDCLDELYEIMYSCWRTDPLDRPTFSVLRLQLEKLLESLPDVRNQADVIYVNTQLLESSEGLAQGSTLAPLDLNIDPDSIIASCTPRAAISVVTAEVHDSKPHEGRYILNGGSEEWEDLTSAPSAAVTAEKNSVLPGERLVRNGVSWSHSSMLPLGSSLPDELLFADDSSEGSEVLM
As to the kind of experiment: Selectivity interaction (SelectScreen profiling (Invitrogen)) EUB0000607a MERTK. The settings on record: at 2 µM.

The target of assay [2] is Ribosomal protein S6 kinase alpha-4 (Homo sapiens) (UniProt O75676). Put plainly: Selectivity interaction (KinomeScan (DiscoverX)) EUB0000229b RPS6KA4. The settings on record: at 10 µM.
Assay [3] concerns the target Tyrosine-protein kinase JAK1 (Homo sapiens, UniProt P23458). Put plainly: Selectivity interaction (KinomeScan (DiscoverX)) EUB0000655a JAK1. Conditions: at 10 µM.
The target of assay [4] is Serine/threonine-protein kinase MARK2 (Homo sapiens) (UniProt Q7KZI7). Put plainly: Selectivity interaction (KinomeScan (DiscoverX)) EUB0000655a MARK2. The settings on record: at 10 µM.
Assay [5] addresses Phosphatidylinositol 4-phosphate 5-kinase type-1 gamma (Homo sapiens) (UniProt O60331). As to the kind of experiment: Selectivity interaction (KinomeScan (DiscoverX)) EUB0001079a PIP5K1C. The settings on record: at 1 µM.
Assay [6] deals with Protein-tyrosine kinase 6 (Homo sapiens, UniProt Q13882). Put plainly: Selectivity interaction (KinomeScan (DiscoverX)) EUB0001619a PTK6. Conditions: at 1 µM.
Assay [7] deals with T2, Cyclin-dependent kinase 11A (Homo sapiens) (UniProt Q9UQ88).
T2 sequence (whole entry): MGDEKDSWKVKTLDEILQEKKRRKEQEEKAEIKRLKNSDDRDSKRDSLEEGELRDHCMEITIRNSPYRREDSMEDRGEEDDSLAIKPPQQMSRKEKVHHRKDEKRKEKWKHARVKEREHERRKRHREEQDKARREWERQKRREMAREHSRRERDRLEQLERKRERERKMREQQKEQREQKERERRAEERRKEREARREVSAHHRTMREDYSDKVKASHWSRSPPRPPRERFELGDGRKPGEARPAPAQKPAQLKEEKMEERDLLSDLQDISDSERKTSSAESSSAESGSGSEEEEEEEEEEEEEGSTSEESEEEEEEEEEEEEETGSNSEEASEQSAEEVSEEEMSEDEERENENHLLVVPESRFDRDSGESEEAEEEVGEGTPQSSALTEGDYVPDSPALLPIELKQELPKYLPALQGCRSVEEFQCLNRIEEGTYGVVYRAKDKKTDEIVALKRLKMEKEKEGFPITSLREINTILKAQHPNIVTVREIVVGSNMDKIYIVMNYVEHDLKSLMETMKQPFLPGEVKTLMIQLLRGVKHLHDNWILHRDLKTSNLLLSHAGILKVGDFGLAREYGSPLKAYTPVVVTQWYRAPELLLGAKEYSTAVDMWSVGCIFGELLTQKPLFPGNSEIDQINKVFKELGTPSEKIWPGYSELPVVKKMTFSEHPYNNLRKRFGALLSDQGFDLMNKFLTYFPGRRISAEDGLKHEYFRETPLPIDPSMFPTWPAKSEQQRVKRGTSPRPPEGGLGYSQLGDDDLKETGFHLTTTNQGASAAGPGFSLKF
Put plainly: Selectivity interaction (KinomeScan (DiscoverX)) EUB0001619a CDK11A. The settings on record: at 1 µM.

Assay [8] deals with Mitogen-activated protein kinase 10 (Homo sapiens, UniProt P53779). Put plainly: Selectivity interaction (KinomeScan (DiscoverX)) EUB0000045b MAPK10.
Assay [9] addresses Phosphorylase b kinase gamma catalytic chain, skeletal muscle/heart isoform (Homo sapiens) (UniProt Q16816). As to the kind of experiment: Selectivity interaction (KinomeScan (DiscoverX)) EUB0000045b PHKG1.
Assay [10] deals with Mitogen-activated protein kinase kinase kinase 1 (Homo sapiens, UniProt Q13233). Put plainly: Selectivity interaction (KinomeScan (DiscoverX)) EUB0000595a MAP3K1. Conditions: at 10 µM.
Mitogen-activated protein kinase kinase kinase 1, sequence (Q13233 whole entry): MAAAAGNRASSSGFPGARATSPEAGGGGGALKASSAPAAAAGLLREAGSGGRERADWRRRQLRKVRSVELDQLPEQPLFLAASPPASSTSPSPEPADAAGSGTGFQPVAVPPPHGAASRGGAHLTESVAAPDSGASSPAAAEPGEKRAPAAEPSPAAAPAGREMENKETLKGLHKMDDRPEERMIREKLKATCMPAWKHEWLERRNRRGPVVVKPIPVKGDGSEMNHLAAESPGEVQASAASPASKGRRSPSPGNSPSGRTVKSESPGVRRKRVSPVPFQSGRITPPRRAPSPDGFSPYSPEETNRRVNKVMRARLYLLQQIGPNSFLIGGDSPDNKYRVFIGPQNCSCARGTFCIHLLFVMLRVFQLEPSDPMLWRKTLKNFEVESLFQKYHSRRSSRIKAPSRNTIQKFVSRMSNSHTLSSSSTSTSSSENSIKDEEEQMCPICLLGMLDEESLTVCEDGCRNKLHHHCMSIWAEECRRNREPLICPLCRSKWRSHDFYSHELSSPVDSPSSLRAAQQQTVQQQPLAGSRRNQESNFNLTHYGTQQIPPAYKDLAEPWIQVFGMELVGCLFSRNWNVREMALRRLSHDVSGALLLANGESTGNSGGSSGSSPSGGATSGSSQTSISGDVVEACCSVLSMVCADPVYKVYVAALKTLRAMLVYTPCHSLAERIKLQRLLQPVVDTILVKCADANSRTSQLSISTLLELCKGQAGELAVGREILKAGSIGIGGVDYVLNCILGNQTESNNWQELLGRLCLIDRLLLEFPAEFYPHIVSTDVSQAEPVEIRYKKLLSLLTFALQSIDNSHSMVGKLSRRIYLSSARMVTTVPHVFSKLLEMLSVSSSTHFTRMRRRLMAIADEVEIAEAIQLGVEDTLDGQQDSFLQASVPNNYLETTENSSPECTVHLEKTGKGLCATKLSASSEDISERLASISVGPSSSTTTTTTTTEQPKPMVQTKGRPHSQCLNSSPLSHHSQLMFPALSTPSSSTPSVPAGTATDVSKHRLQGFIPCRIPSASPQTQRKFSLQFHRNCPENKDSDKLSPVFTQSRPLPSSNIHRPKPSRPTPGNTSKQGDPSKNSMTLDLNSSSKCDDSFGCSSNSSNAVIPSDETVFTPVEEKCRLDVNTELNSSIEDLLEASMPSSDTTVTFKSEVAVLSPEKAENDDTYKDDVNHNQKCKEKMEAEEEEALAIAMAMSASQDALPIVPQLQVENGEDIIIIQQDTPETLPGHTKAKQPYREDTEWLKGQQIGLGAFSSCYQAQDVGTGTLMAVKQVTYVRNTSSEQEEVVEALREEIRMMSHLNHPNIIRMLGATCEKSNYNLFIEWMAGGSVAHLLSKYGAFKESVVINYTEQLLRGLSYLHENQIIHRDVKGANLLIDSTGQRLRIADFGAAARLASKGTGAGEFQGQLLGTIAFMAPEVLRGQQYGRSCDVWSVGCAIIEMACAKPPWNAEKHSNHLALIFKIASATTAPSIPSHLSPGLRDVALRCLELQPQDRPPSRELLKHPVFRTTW

Mitogen-activated protein kinase 10, sequence (P53779 whole entry, canonical isoform): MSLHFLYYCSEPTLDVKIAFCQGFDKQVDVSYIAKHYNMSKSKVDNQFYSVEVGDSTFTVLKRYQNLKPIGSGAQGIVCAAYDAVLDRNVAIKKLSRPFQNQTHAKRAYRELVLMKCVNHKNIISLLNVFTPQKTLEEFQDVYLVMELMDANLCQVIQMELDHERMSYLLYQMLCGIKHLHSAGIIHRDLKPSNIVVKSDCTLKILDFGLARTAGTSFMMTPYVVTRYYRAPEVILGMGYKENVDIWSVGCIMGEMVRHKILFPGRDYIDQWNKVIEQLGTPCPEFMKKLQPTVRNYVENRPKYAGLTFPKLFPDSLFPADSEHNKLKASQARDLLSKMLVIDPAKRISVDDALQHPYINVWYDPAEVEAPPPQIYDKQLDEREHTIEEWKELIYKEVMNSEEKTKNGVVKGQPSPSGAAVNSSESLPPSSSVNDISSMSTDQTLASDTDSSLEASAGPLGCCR
Phosphorylase b kinase gamma catalytic chain, skeletal muscle/heart isoform (Homo sapiens), sequence (Q16816 whole entry, looked up, canonical isoform): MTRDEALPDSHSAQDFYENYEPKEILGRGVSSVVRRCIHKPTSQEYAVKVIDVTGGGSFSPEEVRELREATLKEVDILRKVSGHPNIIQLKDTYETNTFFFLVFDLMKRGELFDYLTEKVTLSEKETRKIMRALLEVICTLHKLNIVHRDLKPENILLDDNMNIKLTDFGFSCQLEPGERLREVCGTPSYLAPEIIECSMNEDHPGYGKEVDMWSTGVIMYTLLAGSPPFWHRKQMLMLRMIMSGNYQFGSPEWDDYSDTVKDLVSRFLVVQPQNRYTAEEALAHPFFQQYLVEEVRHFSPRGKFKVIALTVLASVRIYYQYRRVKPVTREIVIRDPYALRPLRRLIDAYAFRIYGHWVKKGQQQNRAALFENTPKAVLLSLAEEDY
Protein-tyrosine kinase 6, sequence (Q13882 whole entry, looked up): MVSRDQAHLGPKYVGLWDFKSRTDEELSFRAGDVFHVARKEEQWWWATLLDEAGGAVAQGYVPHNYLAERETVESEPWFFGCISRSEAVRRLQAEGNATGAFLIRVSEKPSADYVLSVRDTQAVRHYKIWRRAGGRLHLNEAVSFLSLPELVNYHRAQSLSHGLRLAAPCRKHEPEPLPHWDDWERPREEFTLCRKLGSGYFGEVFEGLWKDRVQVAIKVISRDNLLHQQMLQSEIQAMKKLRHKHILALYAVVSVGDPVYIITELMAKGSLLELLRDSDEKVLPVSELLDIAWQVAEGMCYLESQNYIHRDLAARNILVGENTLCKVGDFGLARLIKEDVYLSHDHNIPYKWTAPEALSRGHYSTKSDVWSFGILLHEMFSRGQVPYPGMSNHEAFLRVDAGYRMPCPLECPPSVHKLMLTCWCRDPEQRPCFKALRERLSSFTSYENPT
Ribosomal protein S6 kinase alpha-4 (Homo sapiens), sequence (O75676 whole entry, looked up): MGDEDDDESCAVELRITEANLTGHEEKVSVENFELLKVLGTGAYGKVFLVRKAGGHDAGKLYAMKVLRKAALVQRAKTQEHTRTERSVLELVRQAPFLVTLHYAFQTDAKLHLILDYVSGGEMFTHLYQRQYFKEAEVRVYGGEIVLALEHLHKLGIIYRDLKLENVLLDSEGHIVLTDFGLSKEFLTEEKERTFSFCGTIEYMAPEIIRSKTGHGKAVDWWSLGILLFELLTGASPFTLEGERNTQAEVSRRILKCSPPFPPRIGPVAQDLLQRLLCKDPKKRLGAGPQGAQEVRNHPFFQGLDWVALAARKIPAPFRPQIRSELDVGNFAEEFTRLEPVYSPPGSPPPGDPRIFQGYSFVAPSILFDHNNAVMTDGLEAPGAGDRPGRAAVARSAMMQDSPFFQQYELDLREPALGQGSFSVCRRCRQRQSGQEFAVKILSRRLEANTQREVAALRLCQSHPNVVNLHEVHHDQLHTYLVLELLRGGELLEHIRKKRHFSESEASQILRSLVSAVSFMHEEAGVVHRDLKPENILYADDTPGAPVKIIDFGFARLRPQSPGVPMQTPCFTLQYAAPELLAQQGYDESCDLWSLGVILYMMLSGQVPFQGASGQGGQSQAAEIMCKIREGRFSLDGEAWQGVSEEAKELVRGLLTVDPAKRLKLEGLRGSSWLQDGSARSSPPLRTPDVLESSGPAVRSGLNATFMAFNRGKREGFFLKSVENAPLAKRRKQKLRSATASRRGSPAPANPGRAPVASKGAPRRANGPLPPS
Phosphatidylinositol 4-phosphate 5-kinase type-1 gamma (Homo sapiens), sequence (O60331 whole entry): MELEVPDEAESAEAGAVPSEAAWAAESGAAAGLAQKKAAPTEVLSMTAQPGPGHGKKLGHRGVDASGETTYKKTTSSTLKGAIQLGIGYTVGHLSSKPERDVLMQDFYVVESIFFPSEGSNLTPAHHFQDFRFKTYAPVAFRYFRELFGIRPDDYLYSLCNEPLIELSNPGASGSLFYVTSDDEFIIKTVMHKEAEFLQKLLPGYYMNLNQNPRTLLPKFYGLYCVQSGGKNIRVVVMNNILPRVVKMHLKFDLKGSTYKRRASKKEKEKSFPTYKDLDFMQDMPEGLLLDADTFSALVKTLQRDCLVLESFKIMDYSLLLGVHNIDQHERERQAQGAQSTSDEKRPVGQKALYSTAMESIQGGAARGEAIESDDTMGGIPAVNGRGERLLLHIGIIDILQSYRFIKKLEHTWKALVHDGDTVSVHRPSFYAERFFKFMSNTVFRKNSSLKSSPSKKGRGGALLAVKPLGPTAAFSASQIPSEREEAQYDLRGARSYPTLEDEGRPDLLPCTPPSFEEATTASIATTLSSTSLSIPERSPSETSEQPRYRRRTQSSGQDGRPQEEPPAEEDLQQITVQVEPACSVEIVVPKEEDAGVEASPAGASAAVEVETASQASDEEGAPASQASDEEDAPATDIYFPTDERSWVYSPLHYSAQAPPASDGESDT
Serine/threonine-protein kinase MARK2 (Homo sapiens), sequence (Q7KZI7 whole entry): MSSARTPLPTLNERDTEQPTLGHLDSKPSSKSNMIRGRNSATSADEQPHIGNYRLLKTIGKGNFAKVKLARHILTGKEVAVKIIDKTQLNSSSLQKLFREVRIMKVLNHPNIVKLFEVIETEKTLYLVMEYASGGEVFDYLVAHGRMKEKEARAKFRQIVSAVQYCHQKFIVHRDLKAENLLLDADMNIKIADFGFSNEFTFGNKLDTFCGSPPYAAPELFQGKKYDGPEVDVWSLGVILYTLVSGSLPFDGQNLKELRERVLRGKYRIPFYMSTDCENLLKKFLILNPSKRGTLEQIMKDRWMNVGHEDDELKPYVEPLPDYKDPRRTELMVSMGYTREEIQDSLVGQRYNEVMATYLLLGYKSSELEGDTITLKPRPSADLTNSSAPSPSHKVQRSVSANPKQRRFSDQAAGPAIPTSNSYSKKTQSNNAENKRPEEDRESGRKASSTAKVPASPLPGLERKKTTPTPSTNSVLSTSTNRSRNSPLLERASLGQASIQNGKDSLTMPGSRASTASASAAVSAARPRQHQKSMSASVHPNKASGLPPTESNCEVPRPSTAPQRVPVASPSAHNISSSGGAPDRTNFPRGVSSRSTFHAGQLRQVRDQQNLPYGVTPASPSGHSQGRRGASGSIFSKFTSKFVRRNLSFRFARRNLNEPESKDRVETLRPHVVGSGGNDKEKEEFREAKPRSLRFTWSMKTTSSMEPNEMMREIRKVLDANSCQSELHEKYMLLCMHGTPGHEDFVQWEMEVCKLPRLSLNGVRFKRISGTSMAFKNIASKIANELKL

In assay [1], `CNC(=O)Nc1ccc(-c2nc(N3CC4CCC(C3)O4)c3cnn(C4CCC5(CC4)OCCO5)c3n2)cc1` gave a % of inhibition of 1%.

On to `COc1cc(N(C)c2ccnc3ccc(C(F)(F)F)cc23)cc(OC)c1OC`, for which the % binding in assay [2] amounted to 75%.

On to `CN(C)CCOc1ccc(-c2nc(-c3ccncc3)c(-c3ccc4c(c3)CC/C4=N\O)[nH]2)cc1`, for which the % of control in [3] and in [4] was 100% throughout.

For the compound `Nc1cnc(N2CCc3cc(S(=O)(=O)Nc4c(F)cc(Cl)cc4F)cc(N4CCCC4=O)c32)nc1` [TP-020n], the % of control in assay [5] was determined as 75%.

Consider `N#Cc1cccc(-c2c[nH]c3ncnc(N4CCOCC4)c23)c1`, for which the % of control is 72% in assay [6] and 100% in assay [7].

Take `C=CC(=O)Nc1cc(-n2c(=O)ccc3cnc4ccc(-c5ccc(NS(C)(=O)=O)cc5)cc4c32)ccc1C`: the % of control was 100% in assay [8] (at 1 µM), 20% in assay [8] (at 10 µM), 86% in assay [9] (at 1 µM) and 97% in assay [9] (at 10 µM).

In assay [10], `COCC(=O)NC/C=C/c1ccc2ncnc(Nc3ccc(Oc4ccc(C)nc4)c(C)c3)c2c1` [CP-724714] returned a % of control of 100%.
